SMILES strings stand for the structures. Calls of active or inactive are those of the source. No cut-off for these calls is given here.

Broadly, the IC50 is the midpoint of a concentration-inhibition curve.

The first assay relates to L1210. The assay is described as follows: Antitumor activity was evaluated in vitro on a L1210 tumor cell line. It is filed as functional, cell-based. As to conditions: Mus musculus.
Consider `Cc1c2c(nn1C)C(=O)N1CCC[C@H]1C=N2`, for which the IC50 was 8.84 µM.

On to `Cc1nn(C)c2c1N=C[C@@H]1CCCN1C2=O`, for which half-maximal inhibition (IC50) was put at 22.4 µM.

In a further assay the test system is L1210. Description: Antitumor activity was evaluated in vitro on a L1210 tumor cell line; IA means inactive. Format: functional, cell-based. As to conditions: Mus musculus.
Consider `Cc1nn(C)c2c1NC[C@@H]1CCCN1C2=O`, for which the result was inactive.

Consider `Cc1c2c(nn1C)C(=O)N1CCC[C@H]1CN2`, for which the result was inactive.

Regarding `CSC1=Nc2c(nn(C)c2C)C(=O)N2CCC[C@@H]12`, the result was inactive.

Take `CSC1=Nc2c(C)nn(C)c2C(=O)N2CCC[C@@H]12`: the result was inactive.

The values are drawn from ChEMBL document CHEMBL1127146, “Synthesis and antitumor activity of a new class of pyrazolo[4,3-e]pyrrolo[1,2-a][1,4]diazepinone analogs of pyrrolo[1,4]benzodiazepines (PBDs)” (Bioorg Med Chem Lett, 1993).
